Where two headings read alike, the source gives them in different places.
Columns and labels:
[1] = target: T1, recombinant HIV 1 RT wild type (Human immunodeficiency virus type 1 group M subtype B, UniProt P03366); test: biochemical
Text: The DNA-polymerase assay is based on a short primer with a specific sequence that is covalently bound to the wells of a 96 well microtiter plate. The reaction mixture contains a single stranded deoxynucleotide template with a part of the sequence complementary to the primer and the four deoxynucleoside triphosphates. Thymidine triphosphate is, however, replaced by 5-bromodeoxyuridine 5′-triphosphate (BrdUTP). The amount of bromodeoxyuridine monophosphate (BrdUMP) incorporated into DNA during the polymerase reaction, is detected with an alkaline phosphatase (Ap) conjugated anti-BrdU monoclonal antibody. An Ap substrate, 4-methylumbelliferyl phosphate, is used for fluorimetric product detection.
The inhibition studies were performed in a modified DNA polymerase assay. The drugs were serially diluted in five steps and 25 μl aliquots were transferred to each well in the microtiter plate, mixed with 100 μl DNA polymerase reaction mixture and the enzyme reaction was initiated by addition of 25 μl enzyme dilution. […] The polymerase reaction was allowed to proceed over-night (16-24 hours at 33° C.). Thereafter the reaction was terminated by a wash of the plate.
The polymerase activity at each inhibitor concentration was recalculated into % of the activity of a control in absence of inhibitor. The results are depicted in FIG. 3.
(§1) The effects of three non-nucleoside inhibitors on indicated recombinant HIV 1 RT were determined according to “Protocol for determination of inhibition of second strand synthesis on variable DNA template” using DNA polymerase γ and Retro DNA polymerase base buffer and “Protocol for determination of inhibition of reverse transcription ” respectively.

[2] = target: T1, recombinant HIV 1 RT wild type; test: biochemical; parameters: The mutated and native forms of RT were isolated as previously described; made in house; conditions: IC50 on template prA, RT type wt, first strand synthesis, 2 hours
Procedure: In short, poly(rA) covalently bound to the wells of a 96 well microtiter plate serves as template for the incorporation of 5-bromodeoxyuridine 5′-triphosphate (BrdUTP) during the reverse transcription step at 33° C. The amount of bromodeoxyuridine monophosphate (BrdUMP) incorporated into DNA, is detected with an alkaline phosphatase (Ap) conjugated anti-BrdU monoclonal antibody. An Ap substrate, 4-methylumbelliferyl phosphate, is finally used for fluorimetric detection.
as §1

[3] = tested on: T69S→SS/L210W/T215Y HIV-1 mutant RT; test: Inhibition of second strand synthesis on variable DNA template, standard reaction solution versus reaction solution with ATP; assay type: biochemical; conditions: 4 pg/well RT, 19 hours
Procedure: The procedure for production of recombinant HIV-1 RTs with AZT specific mutations were similar but the mutations were introduced into the RT-coding region from the HXB2-D isolate.
The DNA polymerase γ and Retro DNA polymerase reaction mixture was reinforced with 3.2 mM ATP and pH was adjusted to 7.1.
The duration of the polymerization reactions was 19 hours. The RT activities obtained were recalculated into % of the activity of the same RT incubated in absence of inhibitor.
Symbols: HIV-1 wild type RT in standard DNA polymerase reaction solution (◯). HIV-1 wild type RT in DNA polymerase reaction solution with ATP (●), T69S→SS/L210W/T215Y HIV-1 mutant RT in standard DNA polymerase reaction solution (⋄),
T69S→SS/L210W/T215Y HIV-1 mutant RT in DNA polymerase reaction solution with ATP(♦).

[4] = target: T2, recombinant DNA polymerase III (Staphylococcus aureus, UniProt P0C1P9); test: Inhibition of DNA polymerase III with TMAU on different templates; assay type: biochemical; conditions: templates (CTGA)6-A12 or (CTG)6-A3; 1.25 ng/well enzyme, one hour, GTP […]
T2 construct: made in house
T2 sequence (P0C1P9 1-1435): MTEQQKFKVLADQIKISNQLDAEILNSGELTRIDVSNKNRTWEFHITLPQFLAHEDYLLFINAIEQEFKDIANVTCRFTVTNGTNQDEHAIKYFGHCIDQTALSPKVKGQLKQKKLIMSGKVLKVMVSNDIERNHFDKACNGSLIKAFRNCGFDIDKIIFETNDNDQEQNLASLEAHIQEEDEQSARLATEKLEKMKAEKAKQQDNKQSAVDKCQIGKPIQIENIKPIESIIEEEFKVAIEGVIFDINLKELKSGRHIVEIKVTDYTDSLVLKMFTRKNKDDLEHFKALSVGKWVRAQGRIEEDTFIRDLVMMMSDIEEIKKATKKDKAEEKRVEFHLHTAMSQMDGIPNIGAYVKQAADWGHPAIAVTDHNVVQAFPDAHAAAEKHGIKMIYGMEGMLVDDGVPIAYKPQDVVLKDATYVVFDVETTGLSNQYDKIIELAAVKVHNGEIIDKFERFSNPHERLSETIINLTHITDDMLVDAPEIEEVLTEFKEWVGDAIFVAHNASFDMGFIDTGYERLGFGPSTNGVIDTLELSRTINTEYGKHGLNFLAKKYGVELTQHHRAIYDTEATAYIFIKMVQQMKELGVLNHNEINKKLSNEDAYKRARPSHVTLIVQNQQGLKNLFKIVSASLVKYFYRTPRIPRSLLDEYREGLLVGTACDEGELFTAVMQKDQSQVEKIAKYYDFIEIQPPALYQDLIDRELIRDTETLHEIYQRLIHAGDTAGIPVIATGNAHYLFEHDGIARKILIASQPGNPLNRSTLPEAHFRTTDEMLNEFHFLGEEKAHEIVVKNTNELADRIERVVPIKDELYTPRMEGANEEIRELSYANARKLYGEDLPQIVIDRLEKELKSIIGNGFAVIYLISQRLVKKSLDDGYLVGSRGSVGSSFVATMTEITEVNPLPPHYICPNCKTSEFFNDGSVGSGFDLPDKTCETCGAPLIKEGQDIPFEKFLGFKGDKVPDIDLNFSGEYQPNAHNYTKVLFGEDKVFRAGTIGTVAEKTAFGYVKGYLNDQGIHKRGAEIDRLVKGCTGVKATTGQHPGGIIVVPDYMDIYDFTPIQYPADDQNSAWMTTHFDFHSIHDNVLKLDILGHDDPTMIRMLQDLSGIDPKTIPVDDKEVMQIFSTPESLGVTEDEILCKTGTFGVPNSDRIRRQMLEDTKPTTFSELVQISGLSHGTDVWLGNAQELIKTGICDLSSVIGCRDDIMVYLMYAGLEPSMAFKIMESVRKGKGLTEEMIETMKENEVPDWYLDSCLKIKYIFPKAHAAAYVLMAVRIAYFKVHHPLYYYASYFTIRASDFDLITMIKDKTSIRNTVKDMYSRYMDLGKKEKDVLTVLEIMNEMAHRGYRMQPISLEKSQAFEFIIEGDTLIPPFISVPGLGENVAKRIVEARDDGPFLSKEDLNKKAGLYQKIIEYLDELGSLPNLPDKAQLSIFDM
Procedure: DNA polymerase I (E. coli) was purchased from Amersham Bioscience. Recombinant DNA polymerase III from Staphylococus aureus was produced as described (Brown et al 1998). Mammalian DNA polymerase α (calf thymus) and β (human) were purchased from CHIMERx (Milwaukee). DNA polymerase γ was purified from beef heart as described (Pileur et al 2000).
(2-(N-Morpholino)ethanesulfonic acid) (MES) 40 mM pH 6.8, Potassium acetate (KAc) 40 mM, MgCl2 10 mM, spermine 2 mM, polyoxyethylenesorbitan monolaureate (Tween 20) 0.5%(v/v), EDTA 0.1 mM, dithiothreitol 1 mM and bovine serum albumin (BSA) 50 μg/ml.
6-anilinouracils are selective inhibitors of DNA polymerase III from gram-positive bacteria. […] The drug TMAU can be regarded as an analogue to […]. […]

`O=C(O)P(=O)(O)O` [Foscarnet] was tested, and the IC50 [1] was 500 nM, the IC50 ([2]; RT amount 20 fg) was 600 nM and the IC50 ([2]; RT amount 100 fg) was 700 nM.

In the case of `C[C@@H](Cn1cnc2c(N)ncnc21)OCP(=O)(O)OP(=O)(O)OP(=O)(O)O`, the “Increase of the difference in drug susceptibility between wild type and mutant RT” value [3] is reported as “approximately 10 fold”.

In the case of `O=c1cc(Nc2ccc3c(c2)CCC3)[nH]c(=O)[nH]1` [TMAU, 6-([3,4-trimethylene]anilino)uracil], the “Inhibitory capacity towards DNA polymerase III” value [4] is reported as “varying inhibitory capacity depending on the sequence of the template used”.

For `Nc1ccn(C2CCC(COP(=O)(O)OP(=O)(O)OP(=O)(O)O)O2)c(=O)n1` (stereo not shown) [ddCTP, 2′3′ dideoxy cytidine triphosphate], the IC50 [1] was 20 nM.

With `Nc1ncnc2c1ncn2C1CCC(COP(=O)(O)OP(=O)(O)OP(=O)(O)O)O1` (stereo not shown) [ddATP, 2′3′ dideoxyadenosine triphosphate] the IC50 [1] was 80 nM.

Source: patent publication US7488577B2, “Method for measuring DNA polymerization and applications of the method” (Cavidi Tech AB, priority 2001, dated 2009)
